From ChEMBL document CHEMBL4145445, “Design, synthesis and biological assessment of new thiazolylhydrazine derivatives as selective and reversible hMAO-A inhibitors” (Eur J Med Chem, 2018)
One block for each compound: values may come before it.

Legend:
[1] = target: T1, Amine oxidase [flavin-containing] A (Homo sapiens, UniProt P21397); assay: Inhibition of human MAO-A using tyramine hydrochloride as substrate after 30 mins by Amplex Red reagent based horseradish peroxidase enzyme-coupled fluorescence assay
T1 sequence (P21397 whole entry): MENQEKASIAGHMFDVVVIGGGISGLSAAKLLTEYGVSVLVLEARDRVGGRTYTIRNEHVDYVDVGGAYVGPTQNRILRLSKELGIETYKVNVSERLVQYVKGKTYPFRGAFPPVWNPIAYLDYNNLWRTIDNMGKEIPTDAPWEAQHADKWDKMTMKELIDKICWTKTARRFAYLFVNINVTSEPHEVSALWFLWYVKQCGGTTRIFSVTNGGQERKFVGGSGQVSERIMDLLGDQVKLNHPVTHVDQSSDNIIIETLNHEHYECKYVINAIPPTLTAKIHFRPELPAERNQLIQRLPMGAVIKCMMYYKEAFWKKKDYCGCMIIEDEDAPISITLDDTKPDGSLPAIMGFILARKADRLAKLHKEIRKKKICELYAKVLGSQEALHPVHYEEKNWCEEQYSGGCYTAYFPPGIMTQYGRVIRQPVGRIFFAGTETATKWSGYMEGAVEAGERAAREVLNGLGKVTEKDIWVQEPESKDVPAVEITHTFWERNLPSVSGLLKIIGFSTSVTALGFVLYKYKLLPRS

[2] = target: T1, Amine oxidase [flavin-containing] A; assay: Inhibition of human MAO-A at 10^-4 to 10^-3 M using tyramine hydrochloride as substrate after 30 mins by Amplex Red reagent based horseradish peroxidase enzyme-coupled fluorescence assay relative to control; conditions: 0.5 h
[3] = target: T2, Amine oxidase [flavin-containing] B (Homo sapiens, UniProt P27338); assay: Inhibition of human MAO-B using tyramine hydrochloride as substrate after 30 mins by Amplex Red reagent based horseradish peroxidase enzyme-coupled fluorescence assay
T2 sequence (P27338 whole entry): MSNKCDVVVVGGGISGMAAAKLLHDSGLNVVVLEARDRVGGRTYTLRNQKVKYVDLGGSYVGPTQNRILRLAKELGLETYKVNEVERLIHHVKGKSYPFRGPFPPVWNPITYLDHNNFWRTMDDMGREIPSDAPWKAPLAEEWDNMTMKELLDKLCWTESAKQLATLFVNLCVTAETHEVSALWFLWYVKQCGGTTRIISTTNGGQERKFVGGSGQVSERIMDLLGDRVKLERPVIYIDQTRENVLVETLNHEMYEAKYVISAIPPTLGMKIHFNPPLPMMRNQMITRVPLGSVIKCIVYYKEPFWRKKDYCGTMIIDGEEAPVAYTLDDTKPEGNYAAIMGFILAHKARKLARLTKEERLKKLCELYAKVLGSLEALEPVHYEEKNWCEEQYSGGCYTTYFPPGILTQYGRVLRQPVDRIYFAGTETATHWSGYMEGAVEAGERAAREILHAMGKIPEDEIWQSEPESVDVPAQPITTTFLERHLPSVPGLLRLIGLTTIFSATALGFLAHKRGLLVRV

Homo sapiens = species on record: Homo sapiens; assay: Selectivity index, ratio of IC50 for human MAO-B to IC50 for human MAO-A
[4] = target: T2, Amine oxidase [flavin-containing] B; assay: Inhibition of human MAO-B at 10^-4 to 10^-3 M using tyramine hydrochloride as substrate after 30 mins by Amplex Red reagent based horseradish peroxidase enzyme-coupled fluorescence assay relative to control; conditions: 0.5 h
Salmonella typhimurium [5] = assay: Genotoxicity in Salmonella typhimurium TA98 assessed as increase in revertant colonies at 1.25 mg/ml in presence of Sprague-Dawley rat liver S9 fraction by Ames test relative to basal level; assay type: toxicity, organism-based; conditions: salmonella enterica subsp. enterica serovar typhimurium
Salmonella typhimurium [6] = assay: Genotoxicity in Salmonella typhimurium TA98 assessed as increase in revertant colonies at 0.3125 mg/ml in absence of Sprague-Dawley rat liver S9 fraction by Ames test relative to basal level; assay type: toxicity, organism-based; conditions: salmonella enterica subsp. enterica serovar typhimurium
Salmonella typhimurium [7] = assay: Genotoxicity in Salmonella typhimurium TA98 assessed as increase in revertant colonies at 0.156 mg/ml in presence of Sprague-Dawley rat liver S9 fraction by Ames test relative to basal level; assay type: toxicity, organism-based; conditions: salmonella enterica subsp. enterica serovar typhimurium
Salmonella typhimurium [8] = assay: Genotoxicity in Salmonella typhimurium TA98 assessed as increase in revertant colonies at 0.625 mg/ml in absence of Sprague-Dawley rat liver S9 fraction by Ames test relative to basal level; assay type: toxicity, organism-based; conditions: salmonella enterica subsp. enterica serovar typhimurium
Salmonella typhimurium [9] = assay: Genotoxicity in Salmonella typhimurium TA100 assessed as increase in revertant colonies at 0.625 mg/ml in presence of Sprague-Dawley rat liver S9 fraction by Ames test relative to basal level; assay type: toxicity, organism-based; conditions: salmonella enterica subsp. enterica serovar typhimurium
Salmonella typhimurium [10] = assay: Genotoxicity in Salmonella typhimurium TA100 assessed as increase in revertant colonies at 1.25 mg/ml in absence of Sprague-Dawley rat liver S9 fraction by Ames test relative to basal level; assay type: toxicity, organism-based; conditions: salmonella enterica subsp. enterica serovar typhimurium
Salmonella typhimurium [11] = assay: Genotoxicity in Salmonella typhimurium TA98 assessed as increase in revertant colonies at 0.625 mg/ml in presence of Sprague-Dawley rat liver S9 fraction by Ames test relative to basal level; assay type: toxicity, organism-based; conditions: salmonella enterica subsp. enterica serovar typhimurium
[12] = target: T1, Amine oxidase [flavin-containing] A; assay: Reversible-competitive inhibition of human MAO-A using varying levels of tyramine as substrate after 30 mins by Lineweaver-Burk plot
Salmonella typhimurium [13] = assay: Genotoxicity in Salmonella typhimurium TA100 assessed as increase in revertant colonies at 0.156 mg/ml in presence of Sprague-Dawley rat liver S9 fraction by Ames test relative to basal level; assay type: toxicity, organism-based; conditions: salmonella enterica subsp. enterica serovar typhimurium
Salmonella typhimurium [14] = assay: Genotoxicity in Salmonella typhimurium TA98 assessed as increase in revertant colonies at 2.5 mg/ml in presence of Sprague-Dawley rat liver S9 fraction by Ames test relative to basal level; assay type: toxicity, organism-based; conditions: salmonella enterica subsp. enterica serovar typhimurium
Salmonella typhimurium [15] = assay: Genotoxicity in Salmonella typhimurium TA98 assessed as increase in revertant colonies at 5 mg/ml in presence of Sprague-Dawley rat liver S9 fraction by Ames test relative to basal level; assay type: toxicity, organism-based; conditions: salmonella enterica subsp. enterica serovar typhimurium
Salmonella typhimurium [16] = assay: Genotoxicity in Salmonella typhimurium TA98 assessed as increase in revertant colonies at 5 mg/ml in absence of Sprague-Dawley rat liver S9 fraction by Ames test relative to basal level; assay type: toxicity, organism-based; conditions: salmonella enterica subsp. enterica serovar typhimurium
Salmonella typhimurium [17] = assay: Genotoxicity in Salmonella typhimurium TA98 assessed as increase in revertant colonies at 0.156 mg/ml in absence of Sprague-Dawley rat liver S9 fraction by Ames test relative to basal level; assay type: toxicity, organism-based; conditions: salmonella enterica subsp. enterica serovar typhimurium
Salmonella typhimurium [18] = assay: Genotoxicity in Salmonella typhimurium TA100 assessed as increase in revertant colonies at 5 mg/ml in presence of Sprague-Dawley rat liver S9 fraction by Ames test relative to basal level; assay type: toxicity, organism-based; conditions: salmonella enterica subsp. enterica serovar typhimurium
Salmonella typhimurium [19] = assay: Genotoxicity in Salmonella typhimurium TA98 assessed as increase in revertant colonies at 1.25 mg/ml in absence of Sprague-Dawley rat liver S9 fraction by Ames test relative to basal level; assay type: toxicity, organism-based; conditions: salmonella enterica subsp. enterica serovar typhimurium
Salmonella typhimurium [20] = assay: Genotoxicity in Salmonella typhimurium TA100 assessed as increase in revertant colonies at 0.3125 mg/ml in absence of Sprague-Dawley rat liver S9 fraction by Ames test relative to basal level; assay type: toxicity, organism-based; conditions: salmonella enterica subsp. enterica serovar typhimurium
Salmonella typhimurium [21] = assay: Genotoxicity in Salmonella typhimurium TA100 assessed as increase in revertant colonies at 0.625 mg/ml in absence of Sprague-Dawley rat liver S9 fraction by Ames test relative to basal level; assay type: toxicity, organism-based; conditions: salmonella enterica subsp. enterica serovar typhimurium
Salmonella typhimurium [22] = assay: Genotoxicity in Salmonella typhimurium TA100 assessed as increase in revertant colonies at 5 mg/ml in absence of Sprague-Dawley rat liver S9 fraction by Ames test relative to basal level; assay type: toxicity, organism-based; conditions: salmonella enterica subsp. enterica serovar typhimurium
Salmonella typhimurium [23] = assay: Genotoxicity in Salmonella typhimurium TA98 assessed as increase in revertant colonies at 2.5 mg/ml in absence of Sprague-Dawley rat liver S9 fraction by Ames test relative to basal level; assay type: toxicity, organism-based; conditions: salmonella enterica subsp. enterica serovar typhimurium
Salmonella typhimurium [24] = assay: Genotoxicity in Salmonella typhimurium TA100 assessed as increase in revertant colonies at 0.3125 mg/ml in presence of Sprague-Dawley rat liver S9 fraction by Ames test relative to basal level; assay type: toxicity, organism-based; conditions: salmonella enterica subsp. enterica serovar typhimurium
NIH3T3 = assay: Cytotoxicity against mouse NIH/3T3 cells by MTT assay; assay type: cell-based
Salmonella typhimurium [25] = assay: Genotoxicity in Salmonella typhimurium TA100 assessed as increase in revertant colonies at 2.5 mg/ml in presence of Sprague-Dawley rat liver S9 fraction by Ames test relative to basal level; assay type: toxicity, organism-based; conditions: salmonella enterica subsp. enterica serovar typhimurium
Salmonella typhimurium [26] = assay: Genotoxicity in Salmonella typhimurium TA100 assessed as increase in revertant colonies at 1.25 mg/ml in presence of Sprague-Dawley rat liver S9 fraction by Ames test relative to basal level; assay type: toxicity, organism-based; conditions: salmonella enterica subsp. enterica serovar typhimurium
Salmonella typhimurium [27] = assay: Genotoxicity in Salmonella typhimurium TA98 assessed as increase in revertant colonies at 0.3125 mg/ml in presence of Sprague-Dawley rat liver S9 fraction by Ames test relative to basal level; assay type: toxicity, organism-based; conditions: salmonella enterica subsp. enterica serovar typhimurium
Salmonella typhimurium [28] = assay: Genotoxicity in Salmonella typhimurium TA100 assessed as increase in revertant colonies at 2.5 mg/ml in absence of Sprague-Dawley rat liver S9 fraction by Ames test relative to basal level; assay type: toxicity, organism-based; conditions: salmonella enterica subsp. enterica serovar typhimurium
Salmonella typhimurium [29] = assay: Genotoxicity in Salmonella typhimurium TA100 assessed as increase in revertant colonies at 0.156 mg/ml in absence of Sprague-Dawley rat liver S9 fraction by Ames test relative to basal level; assay type: toxicity, organism-based; conditions: salmonella enterica subsp. enterica serovar typhimurium

Structure (SMILES): Cc1ccc(-c2csc(N/N=C/c3ccc(N4CCOCC4)cc3)n2)cc1
IC50 [1]: 10.4 µM | inhibition (INH) [2]: > 50% | IC50 [3]: > 1000 µM | Ratio IC50 (Homo sapiens): > 96.2

Structure (SMILES): C(=N\Nc1nc(-c2ccccc2)cs1)/c1ccc(N2CCCC2)cc1
IC50 [1]: 25.6 µM | inhibition (INH) [2]: > 50% | IC50 [3]: > 1000 µM | Ratio IC50 (Homo sapiens): > 39.1

Structure (SMILES): N#Cc1ccc(-c2csc(N/N=C/c3ccc(N4CCOCC4)cc3)n2)cc1
IC50 [1]: 54 µM | inhibition (INH) [2]: > 50% | inhibition (INH) [4]: > 50% | IC50 [3]: 42.9 µM | Ratio IC50 (Homo sapiens): 0.795

Structure (SMILES): C(=N\Nc1nc(-c2ccccc2)cs1)/c1ccc(N2CCOCC2)cc1
IC50 [1]: 11.4 µM | inhibition (INH) [2]: > 50% | IC50 [3]: > 1000 µM | Ratio IC50 (Homo sapiens): > 87.8

Continued, in another order:

IC50 [1]: 66.3 µM | inhibition (INH) [2]: > 50% | inhibition (INH) [4]: > 50% | IC50 [3]: 53.1 µM | Ratio IC50 (Homo sapiens): 0.8
Structure (SMILES): N#Cc1ccc(-c2csc(N/N=C/c3ccc(N4CCCC4)cc3)n2)cc1

IC50 [1]: 61.3 µM | inhibition (INH) [2]: > 50% | IC50 [3]: > 1000 µM | Ratio IC50 (Homo sapiens): > 16.3
Structure (SMILES): Brc1ccc(-c2csc(N/N=C/c3ccc(N4CCCC4)cc3)n2)cc1

IC50 [1]: 13.1 µM | inhibition (INH) [2]: > 50% | inhibition (INH) [4]: > 50% | IC50 [3]: 426 µM | Ratio IC50 (Homo sapiens): 32.5
Structure (SMILES): Fc1ccc(-c2csc(N/N=C/c3ccc(N4CCCC4)cc3)n2)cc1

IC50 [1]: 0.012 µM | inhibition (INH) [2]: > 50% | inhibition (INH) [4]: > 50% | Ki [12]: 0.0066 µM | IC50 [3]: 14.6 µM | Ratio IC50 (Homo sapiens): 1210
Structure (SMILES): Fc1ccc(-c2csc(N/N=C/c3ccc(N4CCOCC4)cc3)n2)cc1
fold change (FC) (Salmonella typhimurium [5]): 7.86 | fold change (FC) (Salmonella typhimurium [6]): 2.28 | fold change (FC) (Salmonella typhimurium [7]): 4.38 | fold change (FC) (Salmonella typhimurium [8]): 1.59 | fold change (FC) (Salmonella typhimurium [9]): 1.12 | fold change (FC) (Salmonella typhimurium [10]): 0.72 | fold change (FC) (Salmonella typhimurium [11]): 6.97 | fold change (FC) (Salmonella typhimurium [13]): 1.07 | fold change (FC) (Salmonella typhimurium [14]): 7.95 | fold change (FC) (Salmonella typhimurium [15]): 5.81 | fold change (FC) (Salmonella typhimurium [16]): 1.66 | fold change (FC) (Salmonella typhimurium [17]): 1.66 | fold change (FC) (Salmonella typhimurium [18]): 1.28 | fold change (FC) (Salmonella typhimurium [19]): 2 | fold change (FC) (Salmonella typhimurium [20]): 0.56 | fold change (FC) (Salmonella typhimurium [21]): 1.11 | fold change (FC) (Salmonella typhimurium [22]): 1.17 | fold change (FC) (Salmonella typhimurium [23]): 1.45 | fold change (FC) (Salmonella typhimurium [24]): 1.01 | IC50 (NIH3T3): > 1000 µM | fold change (FC) (Salmonella typhimurium [25]): 0.96 | fold change (FC) (Salmonella typhimurium [26]): 0.96 | fold change (FC) (Salmonella typhimurium [27]): 6.07 | fold change (FC) (Salmonella typhimurium [28]): 0.83 | fold change (FC) (Salmonella typhimurium [29]): 1.11
